Results from ChEMBL document CHEMBL2401683, “Discovery of novel andrographolide derivatives as cytotoxic agents” (2013).
Activity calls are given as the source filed them. The calls are words filed in the database; no cut-off is given here.

Assays:
[1] = test system: DU-145; experiment: Growth inhibition of human DU145 cells after 72 hrs by SRB assay; assay type: functional; details: DU-145, 72 h
[2] = test system: A549; experiment: Growth inhibition of human A549 cells after 72 hrs by SRB assay; assay type: functional; details: A549, 72 h
[3] = Growth inhibition of human KBVIN cells after 72 hrs by SRB assay; assay type: functional
[4] = test system: KB; experiment: Growth inhibition of human KB cells after 72 hrs by SRB assay; assay type: functional
[5] = test system: PC-3; experiment: Disruption of microtubule dynamics in human PC3 cells at 30 to 60 uM after 24 hrs by DAPI staining-based confocal microscopic analysis; assay type: functional, cell-based
[6] = test system: PC-3; experiment: Induction of metaphase cell accumulation in human PC3 cells at 30 to 60 uM after 24 hrs by DAPI staining-based confocal microscopic analysis; assay type: functional

| GI50 [1] [µM] | GI50 [2] [µM] | GI50 [4] [µM] | Structure (SMILES) | GI50 [3] [µM] | Activity [5] | Activity [6] |
| --- | --- | --- | --- | --- | --- | --- |
| 32.9 | 34 | 36.4 | C=C1CC[C@@H]2[C@]3(C)CO[C@@H](c4ccco4)O[C@@H]3CC[C@@]2(C)[C@@H]1/C=C/C1=CCOC1=O | 32.7 | – | – |
| > 30 | 30.8 | > 30 | C=C1CC[C@@H]2[C@]3(C)CO[C@@H](c4ccc([N+](=O)[O-])cc4)O[C@@H]3CC[C@@]2(C)[C@@H]1/C=C/C1=CCOC1=O | > 30 | – | – |
| 11.8 | 10.2 | 11.7 | C=C1CC[C@@H]2[C@](C)(COC(=O)CCCCC3CCSS3)[C@H](OC(=O)CCCCC3CCSS3)CC[C@@]2(C)[C@@H]1/C=C/C1=CCOC1=O (stereo not given in full) | 12.9 | – | – |
| 2.27 | 1.46 | 2.55 | C=C1CC[C@@H]2[C@](C)(COC(=O)C3CCN(C)CC3)[C@H](OC(=O)C3CCN(C)CC3)CC[C@@]2(C)[C@@H]1/C=C/C1=CCOC1=O | 3 | Active | inactive |
| > 30 | > 30 | > 30 | C=C1CC[C@@H]2[C@](C)(COC(=O)CCCCC3CCSS3)[C@H](O)CC[C@@]2(C)[C@@H]1/C=C/C1=CCOC1=O (stereo not given in full) | > 30 | – | – |
| 16 | 13.4 | 13.2 | C=C1CC[C@@H]2[C@](C)(CO)[C@H](O)CC[C@@]2(C)[C@@H]1C/C=C1/C(=O)OC[C@H]1O [ANDROGRAPHOLIDE] | 13.8 | – | Active |
| > 30 | > 30 | > 30 | C=C1CC[C@@H]2[C@](C)(COC(=O)CN(C)C)[C@H](OC(=O)CN(C)C)CC[C@@]2(C)[C@@H]1/C=C/C1=CCOC1=O | > 30 | – | – |
| > 30 | > 30 | > 30 | C=C1CC[C@@H]2[C@](C)(COC(=O)c3cccnc3)[C@H](OC(=O)c3cccnc3)CC[C@@]2(C)[C@@H]1/C=C/C1=CCOC1=O | > 30 | – | – |
| 30.3 | > 30 | > 30 | C=C1CC[C@@H]2[C@](C)(COC(=O)CCN3CCOCC3)[C@H](O)CC[C@@]2(C)[C@@H]1/C=C/C1=CCOC1=O | 30 | – | – |
| 19.1 | 22.8 | 23.7 | C=C1CC[C@@H]2[C@]3(C)CO[C@@H](c4ccc(O)cc4)O[C@@H]3CC[C@@]2(C)[C@@H]1/C=C/C1=CCOC1=O | 22.6 | – | – |

Further lines, the compound ahead of its results:

| Structure (SMILES) | GI50 [1] [µM] | GI50 [2] [µM] | GI50 [4] [µM] | GI50 [3] [µM] | Activity [5] | Activity [6] |
| --- | --- | --- | --- | --- | --- | --- |
| C=C1CC[C@@H]2[C@]3(C)CO[C@@H](c4ccc(C(F)(F)F)cc4)O[C@@H]3CC[C@@]2(C)[C@@H]1/C=C/C1=CCOC1=O | 17.2 | 16.9 | 23.4 | 18.3 | – | – |
| C=C1CC[C@@H]2[C@](C)(COC(=O)C3CCCN3C(=O)OC(C)(C)C)[C@H](O)CC[C@@]2(C)[C@@H]1/C=C/C1=CCOC1=O (stereo not given in full) | 18.8 | 18.8 | 20.1 | 17.9 | – | – |
| C=C1CC[C@@H]2[C@]3(C)CO[C@@H](c4ccc(OC)cc4)O[C@@H]3CC[C@@]2(C)[C@@H]1/C=C/C1=CCOC1=O | 32.1 | 26.9 | 32.9 | > 30 | – | – |
| C=C1CC[C@@H]2[C@](C)(COC(=O)C3CCCN3C(=O)OC(C)(C)C)[C@H](OC(=O)C3CCCN3C(=O)OC(C)(C)C)CC[C@@]2(C)[C@@H]1/C=C/C1=CCOC1=O (stereo not given in full) | 11.1 | 10.2 | 12.5 | 11.1 | – | – |
| C=C1CC[C@@H]2[C@](C)(COC(=O)CCN3CCOCC3)[C@H](OC(=O)CCN3CCOCC3)CC[C@@]2(C)[C@@H]1/C=C/C1=CCOC1=O | > 30 | > 30 | > 30 | > 30 | – | – |
| C=C1CC[C@@H]2[C@](C)(COC(=O)c3cnccn3)[C@H](OC(=O)c3cnccn3)CC[C@@]2(C)[C@@H]1/C=C/C1=CCOC1=O | 8.63 | 4.87 | 8.24 | 9.19 | – | – |
| C=C1CC[C@@H]2[C@]3(C)CO[C@@H](c4ccc(N(C)C)cc4)O[C@@H]3CC[C@@]2(C)[C@@H]1/C=C/C1=CCOC1=O | > 30 | 33 | > 30 | > 30 | – | – |
| C=C1CC[C@@H]2[C@](C)(COC(=O)CCN(C)C)[C@H](OC(=O)CCN(C)C)CC[C@@]2(C)[C@@H]1/C=C/C1=CCOC1=O | 25.3 | 32 | > 30 | 31.7 | – | – |
